The numbers were not newly measured in patent US20250019557A1, “INK SET AND INKJET RECORDING APPARATUS” (KYOCERA Document Solutions Inc., priority 2023, published 2025), which cites them from elsewhere.

The term LogP denotes the decadic logarithm of the partition coefficient of the neutral form, usually between octanol and water.

For the data set the following is noted: octanol/water partition coefficient; literature value, or calculated where none exists.
Take `CCCCOCCOCCOCCO` [Triethylene glycol monobutyl ether]: the LogP is given as 0.44.

On to `CC(O)CO` (stereo not shown) [1,2-Propanediol], for which the LogP was −0.92.

With `OCCCO` [1,3-Propanediol], the LogP is −1.04.

Take `CC(CCO)CCO` [3-Methyl-1,5-pentanediol]: the LogP is 0.35.
